The subject of experiment [1] is CD69 positive cells that are also CD20 positive, stimulated by anti-IgM, in human whole blood. The experiment in a line: CD69 whole blood assay (human whole blood, anti-IgM stimulated). In kind it is cell-based. The following applies: read-out: IC50 in the CD69 Whole Blood Assay. How it is done: Human blood is obtained from healthy volunteers, with the following restrictions: 1 week drug-free, non-smokers. Blood (approximately 20 mls to test 8 compounds) is collected by venipuncture into Vacutainer tubes with sodium heparin.
Solutions of Formula I compounds at 1000 or 2000 μM in PBS (20×), are diluted by three-fold serial dilutions in 10% DMSO in PBS for a nine point dose-response curve. An aliquot of 5.5 μl of each compound is added in duplicate to a 2 ml 96-well plate; 5.5 μl of 10% DMSO in PBS is added as control and no-stimulus wells. Human whole blood—HWB (100 μl) is added to each well. After mixing the plates are incubated at 37° C., 5% CO2, 100% humidity for 30 minutes. Goat F(ab′)2 anti-human IgM (10 μl of a […] solution, 50 μg/ml final) is added to each well (except the no-stimulus wells) with mixing and the plates are incubated for an additional 20 hours. At the end of the 20 hour incubation, samples are incubated with florescent labeled antibodies for 30 minutes, at 37° C., 5% CO2, 100% humidity. Include induced control, unstained and single stains for compensation adjustments and initial voltage settings. Samples are then lysed with Pharmingen Lyse according to the manufacturer's instructions. Samples are then transferred to a 96 well plate suitable to be run on the AMS 96 well system on the BD Calibur FACs machine. Data acquired and Mean Fluorescence Intensity values were obtained using Cell Quest Software. Results are initially analyzed by FACS analysis software (Flow Jo). […] The IC50 values are calculated by Activityl)ase using Xlfit version 3, equation 201.

Experiment [2] addresses T1, p110δ/p85α (PI3K p110 delta) (Homo sapiens, UniProt O00329).
T1 construct: purchased Upstate Group, Millipore; Dundee, UK
Description: PI3K isoform inhibition assay (fluorescence polarization PIP3 displacement; alternatively radiometric), p110 delta. In kind it is biochemical. Conditions: for IC50: PI3K p110 delta binding IC50; for IC50 p110 alpha/IC50 p110 delta: delta/alpha selectivity: ratio of p110 alpha IC50 to p110 delta IC50. As to the method:
PI3K Isoform Inhibition Assay (p110 Alpha, Beta, Gamma, Delta: α, β, γ, δ)
PI3K enzymatic activity was assayed by measuring the amount of product phosphatidylinositol 3,4,5-phosphate (PIP3) formed from substrate 4,5 phosphatidylinositol 4,5-phosphate (PIP2) using a fluorescence polarization displacement assay. The decrease in fluorescence polarization of a fluorescent PIP3 probe is measured as it is displaced from a PIP3-binding protein GRP-1 detector by PI3K-catalyzed product. […] The kinase reactions were initiated by the addition of 40 ng/mL p110α/p85α, 300 ng/mL p110β/p85α, 40 ng/mL p110γ, or 40 ng/mL p110δ/p85α (Upstate Group, Millipore; Dundee, UK), and 10 μM PIP2 (Echelon Biosciences) to the wells. […] After 60 minutes of incubation at room temperature to allow equilibration of labeled and unlabeled PIP3 binding, the parallel and perpendicular components of the fluorescence emissions from each sample were measured at an excitation wavelength of 530 nm and an emission wavelength of 590 nm using an Envision fluorescent plate reader with a rhodamine filter (PerkinElmer Life and Analytical Sciences; Wellesley, Mass.). The assay is capable of detecting 0.1-2.0 μM PIP3 product. The IC50 values were obtained by fitting the dose-dependent inhibition data to a 4-parameter equation using Assay Explorer software (MDL, San Ramon, Calif.).
The Formula I compound was serially diluted in 100% DMSO. The kinase reaction was incubated for 1 h at room temperature, and the reaction was terminated by the addition of PBS. IC50 values were subsequently determined using sigmoidal dose-response curve fit (variable slope).
HT baculovirus expression system (GIBCO/BRL), and then purified for use in biochemical assays. The four Class I PI 3-kinases are cloned into baculovirus vectors as follows: […]
(Polarisation of emitted light reports the rotation of a fluorescent probe.)

The mark [3] stands for this setting: concentration decreasing by 50% the percent CD69 positive of CD20 positive cells stimulated by anti-IgM, 20 hours.

Experimental findings from US8394796B2, “Bicyclic pyrimidine PI3K inhibitor compounds selective for P110 delta, and methods of use” (Genentech, Inc., priority 2009, dated 2013) are described below.

Where two headings read alike, the source gives them in different places.

T1 sequence (O00329 whole entry): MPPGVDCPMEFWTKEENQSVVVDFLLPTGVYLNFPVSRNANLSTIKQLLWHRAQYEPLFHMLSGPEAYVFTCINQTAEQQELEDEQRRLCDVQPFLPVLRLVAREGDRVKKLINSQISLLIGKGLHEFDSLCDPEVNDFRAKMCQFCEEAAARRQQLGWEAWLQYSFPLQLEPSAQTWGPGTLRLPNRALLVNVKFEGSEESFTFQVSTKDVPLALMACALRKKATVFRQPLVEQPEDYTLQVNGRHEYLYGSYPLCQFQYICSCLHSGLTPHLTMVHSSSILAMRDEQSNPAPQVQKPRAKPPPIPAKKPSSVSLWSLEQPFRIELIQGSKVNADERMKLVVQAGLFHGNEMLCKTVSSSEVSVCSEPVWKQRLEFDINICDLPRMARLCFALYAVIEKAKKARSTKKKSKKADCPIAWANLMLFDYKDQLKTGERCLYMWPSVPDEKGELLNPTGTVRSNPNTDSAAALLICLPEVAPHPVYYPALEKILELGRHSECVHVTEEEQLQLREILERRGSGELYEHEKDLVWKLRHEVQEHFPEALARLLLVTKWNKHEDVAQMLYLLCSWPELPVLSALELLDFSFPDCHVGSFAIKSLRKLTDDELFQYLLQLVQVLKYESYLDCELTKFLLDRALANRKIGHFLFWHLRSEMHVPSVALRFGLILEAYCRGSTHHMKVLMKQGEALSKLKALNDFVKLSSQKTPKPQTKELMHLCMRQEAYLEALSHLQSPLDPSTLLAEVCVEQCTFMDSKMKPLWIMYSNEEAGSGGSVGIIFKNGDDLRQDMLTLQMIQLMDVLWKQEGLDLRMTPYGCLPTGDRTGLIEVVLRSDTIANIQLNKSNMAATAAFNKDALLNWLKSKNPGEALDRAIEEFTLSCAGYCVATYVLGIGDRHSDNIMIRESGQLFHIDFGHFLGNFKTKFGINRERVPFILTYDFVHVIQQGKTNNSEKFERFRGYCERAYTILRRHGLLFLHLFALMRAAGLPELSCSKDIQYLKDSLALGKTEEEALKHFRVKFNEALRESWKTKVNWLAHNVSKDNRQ
T1 sequence (P27986 whole entry partner): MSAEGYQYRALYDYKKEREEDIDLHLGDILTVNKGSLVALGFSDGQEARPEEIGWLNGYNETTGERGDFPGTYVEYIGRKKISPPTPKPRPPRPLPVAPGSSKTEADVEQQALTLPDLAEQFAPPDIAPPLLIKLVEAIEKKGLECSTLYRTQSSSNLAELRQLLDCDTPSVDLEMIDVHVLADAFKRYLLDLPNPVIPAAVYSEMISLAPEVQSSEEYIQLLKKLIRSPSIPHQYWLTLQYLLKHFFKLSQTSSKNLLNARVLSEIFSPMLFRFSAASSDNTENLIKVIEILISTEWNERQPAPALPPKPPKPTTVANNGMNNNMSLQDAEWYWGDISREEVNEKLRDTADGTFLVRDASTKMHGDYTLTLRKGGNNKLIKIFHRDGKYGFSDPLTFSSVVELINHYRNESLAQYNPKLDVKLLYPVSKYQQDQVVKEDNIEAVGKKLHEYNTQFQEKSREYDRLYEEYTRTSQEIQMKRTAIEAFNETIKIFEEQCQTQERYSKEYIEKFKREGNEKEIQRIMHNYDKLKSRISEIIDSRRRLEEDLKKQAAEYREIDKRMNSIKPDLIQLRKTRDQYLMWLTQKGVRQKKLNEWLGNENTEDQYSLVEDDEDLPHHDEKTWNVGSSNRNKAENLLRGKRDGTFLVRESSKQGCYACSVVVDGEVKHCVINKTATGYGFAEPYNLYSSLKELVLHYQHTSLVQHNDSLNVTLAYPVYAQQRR

What is called IC50 is the concentration needed to halve the response being measured. For `Cc1nc2ccccc2n1-c1nc(N2CCOCC2)c2oc(CN3CCN(C(C)(C)C(N)=O)CC3)cc2n1` [Example 240, 2-methyl-2-(4-((2-(2-methyl-1H-benzo[d]imidazol-1-yl)-4-morpholinofuro[3,2-d]pyrimidin-6-yl)methyl)piperazin-1-yl)propanamide], the IC50 in experiment [1] (setting [3]) was determined as 0.0178 µM; in experiment [2], 0.00274 µM. Also, in experiment [2], the “IC50 p110 alpha/IC50 p110 delta” value is given as 64.

As for `Cn1c(CN2CCN(C(C)(C)C)CC2)nc2c(N3CCOCC3)nc(-n3c(C4CC4)nc4ccccc43)nc21` [Example 403, 4-(8-((4-tert-butylpiperazin-1-yl)methyl)-2-(2-cyclopropyl-1H-benzo[d]imidazol-1-yl)-9-methyl-9H-purin-6-yl)morpholine], the IC50 in experiment [1] (setting [3]) amounted to 0.022 µM.

For `Cc1nc2ccccc2n1-c1nc(N2CCOCC2)c2nc(CN3CCN(C(C)(C)C(N)=O)CC3)n(C)c2n1` [Example 406, 2-methyl-2-(4-((9-methyl-2-(2-methyl-1H-benzo[d]imidazol-1-yl)-6-morpholino-9H-purin-8-yl)methyl)piperazin-1-yl)propanamide], the IC50 in experiment [1] (setting [3]) was 0.0206 µM.

In the case of `Cn1c(CN2CCN(C(C)(C)CO)CC2)nc2c(N3CCOCC3)nc(-n3c(CCO)nc4ccccc43)nc21` [Example 427, 2-(4-((2-(2-(2-hydroxyethyl)-1H-benzo[d]imidazol-1-yl)-9-methyl-6-morpholino-9H-purin-8-yl)methyl)piperazin-1-yl)-2-methylpropan-1-ol], the IC50 in experiment [1] (setting [3]) was 0.0567 µM.

Consider `CNc1nc2ccccc2n1-c1nc(N2CCOCC2)c2nc(CN3CCN(C(C)(C)C)CC3)n(C)c2n1` [Example 428, 1-(8-((4-tert-butylpiperazin-1-yl)methyl)-9-methyl-6-morpholino-9H-purin-2-yl)-N-methyl-1H-benzo[d]imidazol-2-amine], for which, in experiment [1] (setting [3]), the IC50 was 0.0342 µM.

Take `Cn1c(CN2CCN(C(C)(C)C(N)=O)CC2)nc2c(N3CCOCC3)nc(-n3c(C4CC4)nc4ccccc43)nc21` [Example 438, 2-(4-((2-(2-cyclopropyl-1H-benzo[d]imidazol-1-yl)-9-methyl-6-morpholino-9H-purin-8-yl)methyl)piperazin-1-yl)-2-methylpropanamide]: the IC50 in experiment [1] (setting [3]) was found to be 0.0659 µM.

As to `CC(C)c1nc2ccccc2n1-c1nc(N2CCOCC2)c2nc(CN3CCN(C(C)(C)CO)CC3)[nH]c2n1` [Example 490, 2-(4-((2-(2-isopropyl-1H-benzo[d]imidazol-1-yl)-6-morpholino-9H-purin-8-yl)methyl)piperazin-1-yl)-2-methylpropan-1-ol], in experiment [1] (setting [3]), the concentration for half-maximal inhibition (IC50) was found to be 0.0383 µM. In experiment [2], the IC50 amounted to 0.00238 µM and the “IC50 p110 alpha/IC50 p110 delta” value was found to be 111.

Take `CN(C)C1CCN(Cc2cc3nc(-c4ccc(O)c5nccn45)nc(N4CCOCC4)c3s2)CC1` [Example 689, 5-(6-((4-(dimethylamino)piperidin-1-yl)methyl)-4-morpholinothieno[3,2-d]pyrimidin-2-yl)imidazo[1,2-a]pyridin-8-ol]: the IC50 in experiment [1] (20 h) came to 0.029 µM. In experiment [2], the IC50 is 0.0258 µM and the “IC50 p110 alpha/IC50 p110 delta” value was 23.

`Cc1nc2ccccc2n1-c1nc(N2CCOCC2)c2nc(CN3CCC(C(C)(C)O)CC3)[nH]c2n1` [Example 702, 2-(1-((2-(2-methyl-1H-benzo[d]imidazol-1-yl)-6-morpholino-9H-purin-8-yl)methyl)piperidin-4-yl)propan-2-ol]: the IC50 in experiment [1] (setting [3]) amounted to 0.0286 µM.
